Laboratory results: patent US10919935B2, “Antimicrobial peptide derived from myxinidin peptide and uses thereof” (INDUSTRY-ACADEMIC COOPERATION FOUNDATION, CHOSUN UNIVERSITY, priority 2015, dated 2021)
Residues, ends and D or L forms follow the SMILES beside them.

Assays:
S. typhimurium 8009 = test: MIC at salt concentration (Example 3); format: cell-based, Salmonella typhimurium
Experimental: (§1) To compare the antimicrobial activity of the peptide produced by the method of Example 1, the inventors of the present invention measured the minimum growth inhibitory concentration (MIC), which is minimum concentration of the peptide showing no dissociation of bacterial cells, at salt concentration.
(§2) Specifically, the bacterial strain described in the above Table 2 was cultured in each medium to a mid-log phase. Then, after dilution to bacterial cell concentration of 2×10^5 cells/100 μl, the cells were inoculated to a microtiter plate (NUNC, USA). Thereafter, myxinidin 1, myxinidin 2, or myxinidin 3 peptides which have been synthesized in Example 1 above was diluted, 1/2 times for each, with BSA+150 mM sodium chloride (NaCl) solution, physiological saline (PBS) solution, or 10 mM sodium phosphate (SP) solution in a 96-well plate. After adding the cells to a plate, the cells were cultured for 12 hours at 37° C. By using a microtiter plate reader (Merck Elisa reader, Germany), the absorbance was measured at a wavelength of 600 nm to determine the MIC value of each bacterial strain. As a control group, myxinidin as a mother peptide was subjected to the same processes as above and the MIC value of each bacterial strain was obtained.

S. typhimurium 8013 = test: MIC at salt concentration (Example 3); format: cell-based, Salmonella typhimurium
Experimental: as §1, §2

S. typhimurium = test: MIC at salt concentration (Example 3); format: cell-based, Salmonella typhimurium
Experimental: as §1, §2

S. aureus 3114 = test: MIC at salt concentration (Example 3); format: cell-based, Staphylococcus aureus
Experimental: as §1, §2

S. aureus 3709 = test: MIC at salt concentration (Example 3); format: cell-based, Staphylococcus aureus
Experimental: as §1, §2

S. aureus [1] = test: MIC at salt concentration (Example 3); format: cell-based, Staphylococcus aureus
Experimental: as §1, §2

L. monocytogenes [2] = test: MIC at salt concentration (Example 3); format: cell-based, Listeria monocytogenes
Experimental: as §1, §2

Escherichia coli 1229 = test: MIC at salt concentration (Example 3); format: cell-based
Experimental: as §1, §2

P. aeruginosa 3592 = test: MIC at salt concentration (Example 3); format: cell-based, Pseudomonas aeruginosa
Experimental: as §1, §2

P. aeruginosa 5018 = test: MIC at salt concentration (Example 3); format: cell-based, Pseudomonas aeruginosa
Experimental: as §1, §2

P. aeruginosa [3] = test: MIC at salt concentration (Example 3); format: cell-based, Pseudomonas aeruginosa
Experimental: as §1, §2

P. aeruginosa [4] = test: Anti-biofilm activity (crystal violet); format: cell-based, Pseudomonas aeruginosa
Experimental: (§3) To compare the antimicrobial activity of the peptide produced by the method of Example 1, the inventors of the present invention measured the biofilm inhibitory concentration value of the peptide showing no dissociation of bacterial cells.
(§4) Specifically, the Gram-negative bacteria and Gram-positive bacteria among the bacterial strains described in the above Table 2 were cultured in each medium to a mid-log phase. Then, after dilution to bacterial cell concentration of 5×10^5 cells/100 μl, the cells were inoculated to a microtiter plate (NUNC, USA). Thereafter, myxinidin 1, myxinidin 2, or myxinidin 3 peptides which have been synthesized in Example 1 above was diluted, 1/10 times for each, with physiological saline (PBS) solution in a 96-well plate. After adding the cells to a plate, the cells were cultured for 12 hours at 37° C. After removing the supernatant, the cells were fixed with 100% methanol and reacted for 2 hours with Crystal violet staining solution followed by rinsing for 3 times. Then, after dissolving in 95% ethanol, the absorbance was measured at a wavelength of 595 nm by using a microtiter plate reader (Merck Elisa reader, Germany) to determine the biofilm inhibitory concentration value of each bacterial strain. As a control group, myxinidin as a mother peptide was subjected to the same processes as above and the biofilm inhibitory concentration value of each bacterial strain was obtained.

S. aureus [5] = test: Anti-biofilm activity (crystal violet); format: cell-based, Staphylococcus aureus
Experimental: as §3, §4

L. monocytogenes [6] = test: Anti-biofilm activity (crystal violet); format: cell-based, Listeria monocytogenes
Experimental: as §3, §4

in vitro = format: cell-based; settings: human, NHK cells (normal human keratinocytes)
Experimental: To determine the cytotoxicity of the peptide produced by the method of Example 1 in normal cell line, toxicity was measured by using NHK cells (Normal Human Keratinocyte cells).
Specifically, NHK cells which have been cultured in Epilife medium with 60 μM calcium (Gibco, USA) containing 10% HKGS (Human Keratinocyte Growth Supplement) (Gibco, USA) were aliquoted in a 96-well plate to have 1×10^4 cells per well. After culturing them for 24 hours, the cells were subjected to a treatment with myxinidin, myxinidin 1, myxinidin 2, or myxinidin 3 peptide, each at concentration of 3.125, 6.25, 12.5, or 25.0 μM/well, followed by reaction for 24 hours in a 5% CO2 incubator. After the culture, a reaction solution containing 5 mg/ml MTT (Thiazolyl Blue Tetrazolium Bromide) dissolved in physiological saline (PBS) was added in an amount of 20 μl to each well and allowed to react for 4 hours. After that, the supernatant was removed, and, by dissolving MTT crystals that are formed by adding 200 μl of DMSO, the absorbance at 560 nm was measured to determine the cell survival ability.

[7] = NaCl (BSA+150 mM sodium chloride)

CC[C@H](C)[C@H](NC(=O)[C@H](Cc1c[nH]c2ccccc12)NC(=O)[C@H](CCCNC(=N)N)NC(=O)[C@@H](NC(=O)[C@@H](N)CCCNC(=N)N)[C@@H](C)CC)C(=O)N[C@@H](CC(C)C)C(=O)N[C@@H](CCCNC(=N)N)C(=O)N[C@@H](Cc1ccc(O)cc1)C(=O)N[C@@H](Cc1c[nH]c2ccccc12)C(=O)N[C@@H](CCCNC(=N)N)C(=O)N[C@@H](Cc1c[nH]c2ccccc12)C(=O)N[C@@H](CO)C(N)=O [Myxinidin 3, RIRWILRYWRWS-NH2] (H-RIRWILRYWRWS-NH2; N-terminus assumed)
Antimicrobial activity (MIC) according to salt concentration (S. typhimurium 8009; [7]): 4 | Antimicrobial activity (MIC) according to salt concentration (S. typhimurium 8009; PBS): 4 | Antimicrobial activity (MIC) according to salt concentration (S. typhimurium 8009; SP (10 mM sodium phosphate)): 2 | Antimicrobial activity (MIC) according to salt concentration (S. typhimurium 8013; [7]): 8 | Antimicrobial activity (MIC) according to salt concentration (S. typhimurium 8013; PBS): 4 | Antimicrobial activity (MIC) according to salt concentration (S. typhimurium 8013; SP (10 mM sodium phosphate)): 2 | Antimicrobial activity (MIC) according to salt concentration (S. typhimurium; [7]): 2 | Antimicrobial activity (MIC) according to salt concentration (S. typhimurium; PBS): 2 | Antimicrobial activity (MIC) according to salt concentration (S. typhimurium; SP (10 mM sodium phosphate)): 2 | Antimicrobial activity (MIC) according to salt concentration (S. aureus 3114; [7]): 16 | Antimicrobial activity (MIC) according to salt concentration (S. aureus 3114; PBS): 4 | Antimicrobial activity (MIC) according to salt concentration (S. aureus 3114; SP (10 mM sodium phosphate)): 4 | Antimicrobial activity (MIC) according to salt concentration (S. aureus 3709; [7]): 4 | Antimicrobial activity (MIC) according to salt concentration (S. aureus 3709; PBS): 4 | Antimicrobial activity (MIC) according to salt concentration (S. aureus 3709; SP (10 mM sodium phosphate)): 4 | Antimicrobial activity (MIC) according to salt concentration (S. aureus [1]; [7]): 0.25 | Antimicrobial activity (MIC) according to salt concentration (S. aureus [1]; PBS): 1 | Antimicrobial activity (MIC) according to salt concentration (S. aureus [1]; SP (10 mM sodium phosphate)): 1 | Antimicrobial activity (MIC) according to salt concentration (L. monocytogenes [2]; [7]): 2 | Antimicrobial activity (MIC) according to salt concentration (L. monocytogenes [2]; PBS): 4 | Antimicrobial activity (MIC) according to salt concentration (L. monocytogenes [2]; SP (10 mM sodium phosphate)): 4 | Antimicrobial activity (MIC) according to salt concentration (Escherichia coli 1229; [7]): 2 | Antimicrobial activity (MIC) according to salt concentration (Escherichia coli 1229; PBS): 2 | Antimicrobial activity (MIC) according to salt concentration (Escherichia coli 1229; SP (10 mM sodium phosphate)): 2 | Antimicrobial activity (MIC) according to salt concentration (P. aeruginosa 3592; [7]): 8 | Antimicrobial activity (MIC) according to salt concentration (P. aeruginosa 3592; PBS): 4 | Antimicrobial activity (MIC) according to salt concentration (P. aeruginosa 3592; SP (10 mM sodium phosphate)): 4 | Antimicrobial activity (MIC) according to salt concentration (P. aeruginosa 5018; [7]): 8 | Antimicrobial activity (MIC) according to salt concentration (P. aeruginosa 5018; PBS): 4 | Antimicrobial activity (MIC) according to salt concentration (P. aeruginosa 5018; SP (10 mM sodium phosphate)): 2 | Antimicrobial activity (MIC) according to salt concentration (P. aeruginosa [3]; [7]): 4 | Antimicrobial activity (MIC) according to salt concentration (P. aeruginosa [3]; PBS): 4 | Antimicrobial activity (MIC) according to salt concentration (P. aeruginosa [3]; SP (10 mM sodium phosphate)): 4 | Biofilm forming ability (P. aeruginosa [4]; peptide 0.25 μM): 100% | Biofilm forming ability (P. aeruginosa [4]; peptide 0.5 μM): 97% | Biofilm forming ability (P. aeruginosa [4]; peptide 1 μM): 97% | Biofilm forming ability (P. aeruginosa [4]; peptide 2 μM): 64% | Biofilm forming ability (P. aeruginosa [4]; peptide 4 μM): 8% | Biofilm forming ability (P. aeruginosa [4]; peptide 8 μM): 7% | Biofilm forming ability (P. aeruginosa [4]; peptide 16 μM): 7% | Biofilm forming ability (P. aeruginosa [4]; peptide 32 μM): 7% | Biofilm forming ability (S. aureus [5]; peptide 0.25 μM): 85% | Biofilm forming ability (S. aureus [5]; peptide 0.5 μM): 84% | Biofilm forming ability (S. aureus [5]; peptide 1 μM): 84% | Biofilm forming ability (S. aureus [5]; peptide 2 μM): 71% | Biofilm forming ability (S. aureus [5]; peptide 4 μM): 28% | Biofilm forming ability (S. aureus [5]; peptide 8 μM): 17% | Biofilm forming ability (S. aureus [5]; peptide 16 μM): 16% | Biofilm forming ability (S. aureus [5]; peptide 32 μM): 14% | Biofilm forming ability (L. monocytogenes [6]; peptide 0.25 μM): 94% | Biofilm forming ability (L. monocytogenes [6]; peptide 0.5 μM): 87% | Biofilm forming ability (L. monocytogenes [6]; peptide 1 μM): 87% | Biofilm forming ability (L. monocytogenes [6]; peptide 2 μM): 83% | Biofilm forming ability (L. monocytogenes [6]; peptide 4 μM): 22% | Biofilm forming ability (L. monocytogenes [6]; peptide 8 μM): 21% | Biofilm forming ability (L. monocytogenes [6]; peptide 16 μM): 18% | Biofilm forming ability (L. monocytogenes [6]; peptide 32 μM): 16% | viability at 24 h, 3.125 µM (in vitro): 100% | viability at 24 h, 6.25 µM (in vitro): 100% | viability at 24 h, 12.5 µM (in vitro): 100% | viability at 24 h, 25 µM (in vitro): 100%
